Measured values published in ChEMBL document CHEMBL1201862, “PubChem BioAssay data set” (2004).
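In this assay, cells in 96-well plates receive the compound at five concentrations for 48 hours. Endpoints are linearly interpolated between the surrounding concentrations. Abbreviation: GI50, concentration required for 50% inhibition of growth.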 Active and inactive are the calls of the source. No stated cut-off is given here; in the data, active = GI50 up to about 1.1 µM and inactive = higher.

Experiments:
Assay in all cases: growth of human tumour cells (NCI), 48 h
[1] = system: K562
[2] = system: SK-MEL-2
[3] = system: HOP-92
[4] = system: OVCAR-8
[5] = system: IGROV-1
[6] = system: NCI-H23
[7] = system: SF-295
[8] = system: DU-145
[9] = system: CCRF-CEM
[10] = system: Malme-3M
[11] = system: ACHN
[12] = system: NCI-H226
[13] = system: UACC-257
[14] = system: OVCAR-4
[15] = system: HL-60
[16] = system: LOX IMVI
[17] = system: BT-549
[18] = system: HCT-116
[19] = system: HCC 2998

Row | Compound | GI50 [1] | GI50 [2] | GI50 [3] | GI50 [4] | GI50 [5] | GI50 [6] | GI50 [7] | GI50 [8] | GI50 [9] | GI50 [10] | GI50 [11] | GI50 [12] | GI50 [13] | GI50 [14] | GI50 [15] | GI50 [16] | GI50 [17] | GI50 [18] | GI50 [19]
1 | CNc1ncnc(Sc2nc(N)nc3[nH]cnc23)c1[N+](=O)[O-] | 0.33 µM (active) | 0.634 µM (active) | 0.52 µM (active) | 0.622 µM (active) | 3.85 µM (inactive) | 1.21 µM (inactive) | 0.971 µM (active) | 0.356 µM (active) | 0.084 µM (active) | 1.46 µM (inactive) | 2.84 µM (inactive) | 5.7 µM (inactive) | 1.54 µM (inactive) | 1.46 µM (inactive) | 1.91 µM (inactive) | 0.189 µM (active) | 2.6 µM (inactive) | 0.39 µM (active) | –
2 | C(=NCCN1CCOCC1)=NC1CCCCC1 | > 100 µM (inactive) | > 100 µM (inactive) | > 100 µM (inactive) | > 100 µM (inactive) | > 100 µM (inactive) | > 100 µM (inactive) | > 100 µM (inactive) | > 100 µM (inactive) | – | > 100 µM (inactive) | > 100 µM (inactive) | > 100 µM (inactive) | > 100 µM (inactive) | > 100 µM (inactive) | – | > 100 µM (inactive) | > 100 µM (inactive) | > 100 µM (inactive) | –
3 | C=C1C(=O)O[C@H]2C[C@@H]1[C@@H](O)[C@H](O)[C@@H](C)CCCC(C)=CCC[C@@]2(C)O | 5.55 µM (inactive) | 21.6 µM (inactive) | 12.4 µM (inactive) | > 10 µM (inactive) | 24.3 µM (inactive) | 18.1 µM (inactive) | 54.7 µM (inactive) | 42.7 µM (inactive) | > 100 µM (inactive) | 13 µM (inactive) | 14.6 µM (inactive) | – | 15.2 µM (inactive) | 21.9 µM (inactive) | 15.1 µM (inactive) | 18.5 µM (inactive) | 10 µM (inactive) | 16.1 µM (inactive) | 25.3 µM (inactive)
4 | N#CCCN(CCC#N)c1ccc(/C=C2\N=C(c3ccccc3)N(c3ccccc3)C2=O)cc1 | 18.5 µM (inactive) | > 100 µM (inactive) | 5.19 µM (inactive) | > 100 µM (inactive) | 25.8 µM (inactive) | – | > 100 µM (inactive) | > 100 µM (inactive) | 2.26 µM (inactive) | > 100 µM (inactive) | > 100 µM (inactive) | > 100 µM (inactive) | > 100 µM (inactive) | > 100 µM (inactive) | 3.07 µM (inactive) | 7.21 µM (inactive) | 57.1 µM (inactive) | 5.93 µM (inactive) | –
5 | CCOC(=O)CSc1nc(-c2ccc(OC)cc2)c(C#N)c(=O)[nH]1 | > 100 µM (inactive) | > 100 µM (inactive) | > 100 µM (inactive) | > 100 µM (inactive) | > 100 µM (inactive) | > 100 µM (inactive) | > 100 µM (inactive) | > 100 µM (inactive) | > 100 µM (inactive) | – | > 100 µM (inactive) | > 100 µM (inactive) | > 100 µM (inactive) | > 100 µM (inactive) | 0.0495 µM (active) | – | > 100 µM (inactive) | > 100 µM (inactive) | > 100 µM (inactive)
6 | Cc1cc(C)nc(NC(=S)Nc2ccc([N+](=O)[O-])cc2)c1 | 45.2 µM (inactive) | > 100 µM (inactive) | > 100 µM (inactive) | > 100 µM (inactive) | > 100 µM (inactive) | > 100 µM (inactive) | – | > 100 µM (inactive) | > 100 µM (inactive) | – | > 100 µM (inactive) | > 100 µM (inactive) | > 100 µM (inactive) | > 100 µM (inactive) | > 100 µM (inactive) | > 100 µM (inactive) | > 100 µM (inactive) | > 100 µM (inactive) | > 100 µM (inactive)
7 | COC(=O)Nc1nc2cc(NC(=O)c3cccs3)ccc2[nH]1 | 24.3 µM (inactive) | 24.9 µM (inactive) | 1.53 µM (inactive) | 68.7 µM (inactive) | 0.296 µM (active) | 35.4 µM (inactive) | 29.6 µM (inactive) | 98.9 µM (inactive) | 31.3 µM (inactive) | 23.4 µM (inactive) | > 100 µM (inactive) | > 100 µM (inactive) | – | 74 µM (inactive) | 61.7 µM (inactive) | 25.9 µM (inactive) | 55.1 µM (inactive) | 34.4 µM (inactive) | –
8 | CCN(CC)CCn1c(C(C)(C)C)nc2ccccc21 | > 100 µM (inactive) | – | > 100 µM (inactive) | > 100 µM (inactive) | > 100 µM (inactive) | > 100 µM (inactive) | > 100 µM (inactive) | > 100 µM (inactive) | > 100 µM (inactive) | > 100 µM (inactive) | > 100 µM (inactive) | > 100 µM (inactive) | > 100 µM (inactive) | > 100 µM (inactive) | > 100 µM (inactive) | – | 36.1 µM (inactive) | > 100 µM (inactive) | > 100 µM (inactive)
9 | O=[N+]([O-])/C=C/c1cccc(F)c1 | – | 12.4 µM (inactive) | 11.6 µM (inactive) | 11.7 µM (inactive) | 1.37 µM (inactive) | 3.48 µM (inactive) | 11.4 µM (inactive) | 4.47 µM (inactive) | 2.22 µM (inactive) | 15.8 µM (inactive) | 2.54 µM (inactive) | 2.25 µM (inactive) | 3.79 µM (inactive) | 3.75 µM (inactive) | – | 0.912 µM (active) | 2.03 µM (inactive) | 0.603 µM (active) | 12 µM (inactive)
10 | [N-]=[N+]=Nc1ccccc1-c1ccccc1[N+](=O)[O-] | 31.3 µM (inactive) | 27.2 µM (inactive) | 72.1 µM (inactive) | 73.3 µM (inactive) | > 100 µM (inactive) | 35.1 µM (inactive) | 73.3 µM (inactive) | 88.5 µM (inactive) | – | 26.4 µM (inactive) | > 100 µM (inactive) | – | 25.4 µM (inactive) | 72.9 µM (inactive) | – | 48.6 µM (inactive) | 32.3 µM (inactive) | 43 µM (inactive) | –
11 | CC(C)c1cc(C(C)C)c(Cl)c(Cl)c1O.CC(C)c1cc(Cl)c(O)c(C(C)C)c1Cl | 16.9 µM (inactive) | 18.5 µM (inactive) | 10.5 µM (inactive) | 26.7 µM (inactive) | 21.6 µM (inactive) | 39.2 µM (inactive) | 18.7 µM (inactive) | 35 µM (inactive) | 37.1 µM (inactive) | 24.8 µM (inactive) | 23.4 µM (inactive) | – | 20 µM (inactive) | – | 18.3 µM (inactive) | 32.3 µM (inactive) | 19.9 µM (inactive) | 76.7 µM (inactive) | 28.8 µM (inactive)
12 | C/N=c1\sc2c(n1C)C(=O)c1ccccc1C2=O | 3.37 µM (inactive) | 2.08 µM (inactive) | 10.3 µM (inactive) | 3.2 µM (inactive) | 6.78 µM (inactive) | 0.566 µM (active) | 1.54 µM (inactive) | 1.66 µM (inactive) | 4.15 µM (inactive) | 0.331 µM (active) | 5.81 µM (inactive) | 2.34 µM (inactive) | 1.53 µM (inactive) | 5.43 µM (inactive) | – | 1.27 µM (inactive) | 1.76 µM (inactive) | 2.85 µM (inactive) | 7.73 µM (inactive)
13 | CC12C(=O)CC(CC1=O)C2(C)C | > 100 µM (inactive) | > 100 µM (inactive) | > 100 µM (inactive) | > 100 µM (inactive) | > 100 µM (inactive) | – | > 100 µM (inactive) | > 100 µM (inactive) | > 100 µM (inactive) | > 100 µM (inactive) | > 100 µM (inactive) | > 100 µM (inactive) | > 100 µM (inactive) | > 100 µM (inactive) | > 100 µM (inactive) | > 100 µM (inactive) | > 100 µM (inactive) | > 100 µM (inactive) | –
14 | C[C@H](NC(=O)CNC(=O)CCCCCC(=O)NCC(=O)N[C@@H](C)C(=O)OCc1ccccc1)C(=O)OCc1ccccc1 | > 100 µM (inactive) | > 100 µM (inactive) | > 100 µM (inactive) | > 100 µM (inactive) | > 100 µM (inactive) | > 100 µM (inactive) | > 100 µM (inactive) | > 100 µM (inactive) | > 100 µM (inactive) | > 100 µM (inactive) | > 100 µM (inactive) | > 100 µM (inactive) | > 100 µM (inactive) | > 100 µM (inactive) | – | > 100 µM (inactive) | > 100 µM (inactive) | > 100 µM (inactive) | > 100 µM (inactive)
15 | Cc1c(C)c2ccc(O)cc2[nH]c1=O | > 100 µM (inactive) | > 100 µM (inactive) | > 100 µM (inactive) | > 100 µM (inactive) | > 100 µM (inactive) | > 100 µM (inactive) | > 100 µM (inactive) | > 100 µM (inactive) | > 100 µM (inactive) | – | > 100 µM (inactive) | > 100 µM (inactive) | > 100 µM (inactive) | > 100 µM (inactive) | – | > 100 µM (inactive) | > 100 µM (inactive) | > 100 µM (inactive) | > 100 µM (inactive)
16 | Nn1c(-c2ccccc2)nn(C(=O)c2ccccc2)c1=O | > 100 µM (inactive) | – | > 100 µM (inactive) | > 100 µM (inactive) | > 100 µM (inactive) | > 100 µM (inactive) | > 100 µM (inactive) | > 100 µM (inactive) | > 100 µM (inactive) | > 100 µM (inactive) | > 100 µM (inactive) | > 100 µM (inactive) | > 100 µM (inactive) | > 100 µM (inactive) | > 100 µM (inactive) | > 100 µM (inactive) | > 100 µM (inactive) | > 100 µM (inactive) | > 100 µM (inactive)
